# Measured values taken from ChEMBL document CHEMBL1201862, “PubChem BioAssay data set” (2004).
# Calls of active or inactive are those of the source.
# Legend:
# [1] = target: T1, 1-phosphatidylinositol 4,5-bisphosphate phosphodiesterase beta-3 (Homo sapiens, UniProt Q01970); experiment: Fluorescence-based biochemical high throughput dose response assay to identify inhibitors of phospholipase C isozymes (PLC-B3).
# T1 sequence (Q01970 whole entry): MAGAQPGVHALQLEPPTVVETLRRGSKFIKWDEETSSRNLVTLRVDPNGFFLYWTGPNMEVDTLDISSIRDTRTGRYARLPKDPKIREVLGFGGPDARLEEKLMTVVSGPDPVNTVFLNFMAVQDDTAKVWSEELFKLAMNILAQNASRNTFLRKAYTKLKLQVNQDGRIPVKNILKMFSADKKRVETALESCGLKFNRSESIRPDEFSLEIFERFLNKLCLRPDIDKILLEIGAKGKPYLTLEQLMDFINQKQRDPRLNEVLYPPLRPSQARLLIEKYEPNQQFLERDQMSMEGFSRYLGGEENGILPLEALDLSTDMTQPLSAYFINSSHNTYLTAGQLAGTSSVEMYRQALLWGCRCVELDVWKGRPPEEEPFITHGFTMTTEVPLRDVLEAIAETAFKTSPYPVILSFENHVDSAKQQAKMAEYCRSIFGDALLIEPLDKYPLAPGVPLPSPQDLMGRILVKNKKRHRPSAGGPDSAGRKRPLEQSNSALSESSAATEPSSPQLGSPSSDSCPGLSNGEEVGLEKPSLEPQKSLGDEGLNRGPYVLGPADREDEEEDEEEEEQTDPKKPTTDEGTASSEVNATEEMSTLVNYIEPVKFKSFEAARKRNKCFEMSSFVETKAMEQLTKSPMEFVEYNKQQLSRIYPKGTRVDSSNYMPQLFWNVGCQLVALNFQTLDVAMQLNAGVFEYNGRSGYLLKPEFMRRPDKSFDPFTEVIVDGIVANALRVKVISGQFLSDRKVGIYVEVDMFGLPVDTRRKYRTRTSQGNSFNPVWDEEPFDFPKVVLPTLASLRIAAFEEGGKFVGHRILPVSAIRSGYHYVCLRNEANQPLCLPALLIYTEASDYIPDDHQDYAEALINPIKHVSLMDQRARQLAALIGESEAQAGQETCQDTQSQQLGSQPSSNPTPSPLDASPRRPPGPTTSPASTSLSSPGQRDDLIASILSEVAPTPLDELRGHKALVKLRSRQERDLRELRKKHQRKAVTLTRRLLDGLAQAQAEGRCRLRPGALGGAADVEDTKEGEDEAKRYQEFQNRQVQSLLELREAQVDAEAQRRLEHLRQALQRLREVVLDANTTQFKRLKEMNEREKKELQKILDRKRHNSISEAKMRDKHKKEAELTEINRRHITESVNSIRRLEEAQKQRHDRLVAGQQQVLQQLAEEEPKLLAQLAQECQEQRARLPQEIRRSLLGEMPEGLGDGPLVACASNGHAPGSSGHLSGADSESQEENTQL
# [2] = target: Heat shock protein HSP 90-alpha (Homo sapiens, UniProt P07900); type: functional, organism-based
# Caspase-3 = target: T2, Caspase-3 (Homo sapiens, UniProt P42574); type: functional;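 note: Dose-response selectivity test against caspase-3 for candidate inhibitors of sentrin-specific proteases (SENPs)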
# T2 sequence (P42574 whole entry): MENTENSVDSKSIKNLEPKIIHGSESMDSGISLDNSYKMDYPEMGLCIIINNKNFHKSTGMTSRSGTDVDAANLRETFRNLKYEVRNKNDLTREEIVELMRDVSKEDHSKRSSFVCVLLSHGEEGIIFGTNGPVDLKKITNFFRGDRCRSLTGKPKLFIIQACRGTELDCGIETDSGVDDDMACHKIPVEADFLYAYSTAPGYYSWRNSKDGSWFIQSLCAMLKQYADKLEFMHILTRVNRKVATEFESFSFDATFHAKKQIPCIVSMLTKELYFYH
# [3] = target: T3, Sentrin-specific protease 8 (Homo sapiens, UniProt Q96LD8); type: functional;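 note: luminescence read-out of SENP8 inhibition, dose-response confirmation following an ultra-high-throughput screen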
# T3 sequence (Q96LD8 whole entry): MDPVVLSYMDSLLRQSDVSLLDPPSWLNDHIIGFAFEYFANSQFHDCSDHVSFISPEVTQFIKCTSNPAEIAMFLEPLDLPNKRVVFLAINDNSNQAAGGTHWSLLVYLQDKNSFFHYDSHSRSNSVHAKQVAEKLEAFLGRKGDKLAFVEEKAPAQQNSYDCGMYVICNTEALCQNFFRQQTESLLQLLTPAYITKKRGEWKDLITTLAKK
Structure (SMILES),IC50 [1],AC50 [2],IC50 (Caspase-3),IC50 [3]
O=C(NN1C(=O)CSC1=S)C(=O)NN1C(=O)CSC1=S,> 122 µM (inactive),,,
O=C1NC(=S)S/C1=C\C=C\c1ccc([N+](=O)[O-])o1,> 122 µM (inactive),1.73 µM (active),,
COC(=O)C1CN(C#N)N(c2ccc(Cl)cc2)C12c1ccccc1-c1ccccc12 (stereo not drawn),,2.75 µM (active),,
Cc1ccc2[nH]c(/C(C#N)=C/c3ccc(O)c(O)c3)nc2c1,,,28.1 µM (active),24.3 µM (active)
CN(C)S(=O)(=O)Oc1cccc(C(=O)Nc2ccc(Cl)c(Cl)c2)c1,,,52.2 µM (active),19.6 µM (active)
